Test [1] concerns E. coli L-asparaginase iiiA. Particulars: in words; cited from earlier work.
The test system of test [2] is 64N-hC, shuffled hASNase1/gpASNase1 clone #64 with human C-terminal domain, SEQ ID NO:40. Description: L-asparaginase kinetics, NADH-dependent enzyme-coupled assay. It counts as biochemical, human / guinea pig. The settings on record: pH 7.5, 37° C. The protocol:
(§1) The catalytic activity of the clones was determined using a spectroscopic NADH-dependent enzyme-coupled assay (Fernandez, et al. (2013) Int. J. Clin. Exp. Med. 6:478-487; Hejazi, et al. (2002) Biochem. J. 364:129-136), which measures the production of L-aspartic acid (Asp) through the 1:1 oxidation of reduced NADH. The conversion of NADH to NAD was measured spectrophotometrically as a decrease in absorbance at 340 nm at 37° C. All measurements were taken in triplicate in a buffer containing 100 mM Tris pH 7.5, 0.4 mM α-ketoglutarate and 0.4 mM NADH with 50 nM (hASNase1, hN-gC); 10 nM (gpASNase1, gN-hC, 63-hC, 64-hC, 65-hC, SA-hC) or 3 nM (ansB) enzyme. Glutamic-oxalacetic transaminase (Sigma) and malic dehydrogenase (Sigma) were helper enzymes for the coupled enzymatic reactions; 5 and 1 unit were used, respectively. Data were fit to the Michaelis-Menten equation using SigmaPlot (Systat Software Inc). Due to the cooperative nature of hASNase1, this enzyme was analyzed using the Hill equation.
Since the goal was to identify a clone with gpASNase1 kinetic properties but with the highest sequence homology to hASNase1, the four clones, #63, #64, #65 and # SA, were engineered by replacing their shuffled C-terminal domain with the exact sequence of the human C-terminal domain (FIG. 1).
For determining the precise kinetic properties of 63N-hC, 64N-hC, 65N-hC and SAN-hC, the genes encoding these enzymes were sub-cloned into a pET14b expression vector and expressed in C41 E. coli cells. The purified clones were tested for their L-asparaginase activity (Table 4). E. coli L-asparaginase ansB was also included in order to compare the clones to an L-asparaginase approved for cancer therapy. […] Importantly, the kobs@50 μM values for the humanized clones were also in this range, being 17 sec^−1, 10 sec^−1, 17 sec^−1 and 6 sec^−1 for clones 63N-hC, 64N-hC, 65N-hC and SAN-hC, respectively.

Test [3] concerns the target human L-asparaginase 1 (hASNase1), wild type, SEQ ID NO:2 (Homo sapiens, UniProt Q86U10). Described as above. It counts as biochemical. The protocol:
as §1

Test [4] addresses T1, E. coli L-asparaginase ansB (type II) (Escherichia coli, UniProt P00805).
T1 construct: made in house
The test is described as above. It counts as biochemical. Particulars: 50 μM Asn, pH 7.5, 37° C. The protocol:
as §1

The target of test [5] is T2, guinea pig L-asparaginase (gpASNase1, GpA), wild type, full length (GpA-FL), SEQ ID NO:1 (Cavia porcellus, UniProt H0W0T5).
T2 construct: Full length GpA (GpA-FL); made in house
T2 sequence (H0W0T5 1-565): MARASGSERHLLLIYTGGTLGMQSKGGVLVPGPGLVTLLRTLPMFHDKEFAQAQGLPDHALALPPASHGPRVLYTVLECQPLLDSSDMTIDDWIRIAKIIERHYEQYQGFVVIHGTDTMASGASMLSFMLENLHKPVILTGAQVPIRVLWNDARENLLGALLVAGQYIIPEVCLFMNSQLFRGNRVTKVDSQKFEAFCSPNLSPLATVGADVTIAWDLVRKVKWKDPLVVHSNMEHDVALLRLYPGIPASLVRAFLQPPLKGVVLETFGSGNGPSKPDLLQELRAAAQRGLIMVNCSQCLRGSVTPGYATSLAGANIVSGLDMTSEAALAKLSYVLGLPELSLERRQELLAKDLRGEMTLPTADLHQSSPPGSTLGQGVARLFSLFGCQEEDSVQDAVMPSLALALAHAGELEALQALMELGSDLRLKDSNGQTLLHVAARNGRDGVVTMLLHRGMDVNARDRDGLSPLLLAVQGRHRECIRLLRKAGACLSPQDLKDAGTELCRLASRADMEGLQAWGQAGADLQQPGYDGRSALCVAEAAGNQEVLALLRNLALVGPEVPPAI
The description is as above. It counts as biochemical. The protocol:
as §1

Test [6] concerns guinea pig L-asparaginase (gpASNase1, GpA), wild type, SEQ ID NO:1. Particulars: Schalk, et al. (2014), cited from earlier work.
In test [7] the target is T3, guinea pig L-asparaginase (GpA) variant 10K-PEGylated-GpA369-C198A, SEQ ID NO:51 (Cavia porcellus, UniProt H0W0T5, C198A).
T3 construct: made in house
Description: L-asparaginase activity, kobs at 2 mM Asn. It counts as biochemical. Particulars: linear PEG. The method, then: as §1
(§2) Each of the variants listed in Table 9 were recombinantly expressed, purified and PEGylated with one or more of mPEG-10K, mPEG-20K and mPEG-40K (Table 10). As determined by SDS-PAGE analysis, the size of the PEGylated enzymes increased with an increase in the number of active cysteines. For example, using maleimide-PEG10K, GpA369(hum)-C198A migrated at a higher molecular weight after PEGylation (due to the extra 10K Da supplied by the PEG), and GpA369(hum)-C198A+R52C migrated at an even higher apparent molecular weight since this variant can react with two PEG molecules (for a total of an extra 20K Da supplied by two 10K molecules linked to the enzyme). Of note, the GpA369-C198A-K225C-E340C-E49C-Q257C mutant was prepared, expressed, purified and PEGylated with mPEG-10K.

Test [8] deals with T4, guinea pig L-asparaginase (GpA) variant 40K-PEGylated-GpA369-C198A, SEQ ID NO:51 (Cavia porcellus, UniProt H0W0T5, C198A).
T4 construct: made in house
Description: L-asparaginase activity, kobs at 2 mM Asn. It counts as biochemical. Particulars: linear PEG. The method, then: as §1, §2

For test [9], the target named is T5, guinea pig L-asparaginase (GpA) variant 20K-PEGylated-GpA369-C198A, SEQ ID NO:51 (Cavia porcellus, UniProt H0W0T5, C198A).
T5 construct: made in house
Description: L-asparaginase activity, kobs at 2 mM Asn. It counts as biochemical. The settings on record: linear PEG. The method, then:
as §1, §2

Structures are written as SMILES. “And” between values parts separate entries of the source, which are not always exact repeats. Equal entries are not always repeated.

T1 sequence (P00805 23-348): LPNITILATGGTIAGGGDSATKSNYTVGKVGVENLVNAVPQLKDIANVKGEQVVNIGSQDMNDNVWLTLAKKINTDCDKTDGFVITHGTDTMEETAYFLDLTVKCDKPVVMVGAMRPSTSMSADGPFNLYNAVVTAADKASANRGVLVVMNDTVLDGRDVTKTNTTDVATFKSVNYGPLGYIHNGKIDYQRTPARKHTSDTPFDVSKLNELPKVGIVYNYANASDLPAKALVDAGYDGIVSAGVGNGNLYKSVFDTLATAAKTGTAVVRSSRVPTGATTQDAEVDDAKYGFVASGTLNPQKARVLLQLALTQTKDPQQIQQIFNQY
Sequence of human L-asparaginase 1 (hASNase1), wild type, SEQ ID NO:2 (Q86U10 whole entry): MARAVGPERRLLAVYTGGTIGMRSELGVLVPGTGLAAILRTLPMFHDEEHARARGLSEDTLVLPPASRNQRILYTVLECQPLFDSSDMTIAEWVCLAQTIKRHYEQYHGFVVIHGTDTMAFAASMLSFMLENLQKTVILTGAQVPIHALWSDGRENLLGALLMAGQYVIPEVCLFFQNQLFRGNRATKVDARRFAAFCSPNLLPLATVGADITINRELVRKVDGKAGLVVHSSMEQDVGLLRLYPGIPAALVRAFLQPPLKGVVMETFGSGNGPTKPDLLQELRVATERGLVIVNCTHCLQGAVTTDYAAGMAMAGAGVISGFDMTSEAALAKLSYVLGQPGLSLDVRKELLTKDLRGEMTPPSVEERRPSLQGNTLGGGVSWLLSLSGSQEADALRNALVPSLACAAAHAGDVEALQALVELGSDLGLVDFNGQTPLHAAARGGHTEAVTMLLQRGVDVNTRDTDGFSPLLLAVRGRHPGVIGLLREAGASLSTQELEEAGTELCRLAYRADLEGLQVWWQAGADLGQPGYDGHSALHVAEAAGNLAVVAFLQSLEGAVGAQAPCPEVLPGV
T4 sequence (H0W0T5 1-369 C198A): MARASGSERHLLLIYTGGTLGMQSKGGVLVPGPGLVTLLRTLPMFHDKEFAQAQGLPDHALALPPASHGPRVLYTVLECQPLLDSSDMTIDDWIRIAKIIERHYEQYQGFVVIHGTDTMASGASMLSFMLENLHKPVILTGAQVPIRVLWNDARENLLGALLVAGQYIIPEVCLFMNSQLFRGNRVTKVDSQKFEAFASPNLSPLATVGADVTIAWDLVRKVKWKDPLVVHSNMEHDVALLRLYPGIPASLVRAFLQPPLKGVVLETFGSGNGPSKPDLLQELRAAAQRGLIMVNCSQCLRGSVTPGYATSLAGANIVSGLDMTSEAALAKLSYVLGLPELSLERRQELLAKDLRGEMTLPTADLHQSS
T3 sequence (H0W0T5 1-369 C198A): as above
T5 sequence (H0W0T5 1-369 C198A): as above

Regarding `NC(=O)C[C@H](N)C(=O)O` [Asn, L-asparagine], the “Km value for Asn” value in [1] was “very high”. The “kobs @50 μM” value was 10 s⁻¹ and 10 ± 1 s⁻¹ in test [2] (50 μM Asn); 41 ± 0.3 s⁻¹ in test [4]; 20 s⁻¹ and 20 ± 1 s⁻¹ in [5] (50 μM Asn, pH 7.5, 37° C.). Also, in test [2], the kcat/Km is on record as 0.3 sec^−1μM^−1. For the same compound, the Km in [2] (10 nM enzyme) was 202 ± 17 µM; in [5] (pH 7.5, 37° C., 10 nM enzyme), 50 ± 7 µM; in test [6] (read-out: Km for Asn) it was 58 µM. In addition, the kcat worked out at 60 ± 2 s⁻¹ in test [2] (10 nM enzyme); 17 ± 0.8 s⁻¹ in test [3] (Hill-equation (n = 2.1), pH 7.5, 37° C., 50 nM enzyme); 41 ± 2 s⁻¹ in test [5] (pH 7.5, 37° C., 10 nM enzyme). Besides, in test [3] (Hill-equation fit), the Hill coefficient n result was “*Kinetic parameters using the Hill-equation (n = 2.1)”. The “kobs at 2 mM ASN” value in test [5] (2 mM Asn, full length GpA) came to 41 s⁻¹; in test [7], 83.3 s⁻¹; in [8], 76.5 s⁻¹; in test [9], 83.7 s⁻¹. Further, the “reaction rate (kcat)” value in [6] was “approximately 39 s^−1”. In addition, in test [6] (in words), the “Km for Asn” value is reported as “in the micromolar range”.

The record behind these values is patent US11578315B2, “Truncated guinea pig L-asparaginase variants and methods of use” (THE BOARD OF TRUSTEES OF THE UNIVERSITY OF ILLINOIS, priority 2017, dated 2023).
